Converted amounts (≈) assume the structure as drawn.
Columns and labels:
[1] = Geometrical average of minimum inhibitory concentration was determined in isosensitest broth against gram-positive strains.; type: functional
[2] = Geometrical average of minimum inhibitory concentration was determined in isosensitest broth against gram-negative strains.; type: functional
[3] = tested on: Alcaligenes; experiment: Geometrical average of minimum bactericidal concentration was determined in isosensitest against Alcaligenes; type: functional
[4] = tested on: Alcaligenes; experiment: Geometrical average of minimum inhibitory concentration was determined in isosensitest broth against Alcaligenes; type: functional
[5] = tested on: Bacillus; experiment: Geometrical average of minimum bactericidal concentration was determined in isosensitest against Bacillus; type: functional
[6] = tested on: Escherichia coli; experiment: Geometrical average of minimum bactericidal concentration was determined in isosensitest broth against, Escherichia coli; type: functional
[7] = tested on: Escherichia coli; experiment: Geometrical average of minimum inhibitory concentration was determined in isosensitest broth against Escherichia coli; type: functional
[8] = tested on: Escherichia coli; experiment: In vivo protective dose was determined in infected swiss mice (120/strain) infected ip with Escherichia coli ISM with an inoculum size-0.5 mL of 10 E6 CFU/mL of suspension. Activity value range is 3.47-6.63; type: functional
[9] = tested on: Escherichia coli; experiment: Minimum inhibitory concentration against, Escherichia coli ISM with an inoculum size-0.5 mL of 10 E6 CFU/mL of suspension); type: functional
[10] = tested on: Enterobacter; experiment: Geometrical average of minimum bactericidal concentration was determined in isosensitest against Enterobacter; type: functional
[11] = tested on: Enterobacter; experiment: Geometrical average of minimum inhibitory concentration was determined in isosensitest broth against Enterobacter; type: functional
[12] = tested on: Klebsiella; experiment: Geometrical average of minimum bactericidal concentration was determined in isosensitest broth against Klebsiella; type: functional
[13] = tested on: Klebsiella; experiment: Geometrical average of minimum inhibitory concentration was determined in isosensitest broth against Klebsiella; type: functional
[14] = tested on: Klebsiella pneumoniae; experiment: In vivo protective dose was determined in infected swiss mice (120/strain) infected ip Klebsiella pneumoniae 102 with an inoculum size-0.5 mL of 10 E5 CFU/mL of suspension. Activity value range is 5.27-15.35; type: functional
[15] = tested on: Klebsiella pneumoniae; experiment: Minimum inhibitory concentration against Klebsiella pneumoniae 102 with an inoculum size-0.5 mL of 10 E5 CFU/mL of suspension; type: functional
[16] = tested on: Neisseria perflava; experiment: Geometrical average of minimum bactericidal concentration was determined in isosensitest against Neisseria perfl.; type: functional
[17] = tested on: Neisseria perflava; experiment: Geometrical average of minimum inhibitory concentration was determined in isosensitest broth against Neisseria perfl.; type: functional
[18] = tested on: Pseudomonas; experiment: Geometrical average of minimum bactericidal concentration was determined in isosensitest broth against Pseudomonas; type: functional
[19] = tested on: Pseudomonas; experiment: Geometrical average of minimum inhibitory concentration was determined in isosensitest broth against Pseudomonas; type: functional
[20] = tested on: Proteus; experiment: Geometrical average of minimum bactericidal concentration was determined in isosensitest broth against Proteus; type: functional, Proteus sp.
[21] = tested on: Proteus; experiment: Geometrical average of minimum inhibitory concentration was determined in isosensitest broth against Proteus; type: functional, Proteus sp.
[22] = tested on: Sarcina; experiment: Geometrical average of minimum bactericidal concentration was determined in isosensitest against Sarcina; type: functional
[23] = tested on: Sarcina; experiment: Geometrical average of minimum inhibitory concentration (MIC) in isosensitest broth against Sarcina; type: functional
[24] = tested on: Salmonella; experiment: Geometrical average of minimum bactericidal concentration was determined in isosensitest broth against Salmonella; type: functional
[25] = tested on: Salmonella typhimurium; experiment: Minimum inhibitory concentration against Salmonella Typhimurium T.O with an inoculum size-0.5 mL of 10 E6 CFU/mL of suspension; type: functional, Salmonella enterica subsp. enterica serovar Typhimurium; conditions: Salmonella enterica
[26] = tested on: Salmonella; experiment: Geometrical average of minimum inhibitory concentration was determined in isosensitest broth against Salmonella; type: functional
[27] = tested on: Streptococcus; experiment: Geometrical average of minimum inhibitory concentration was determined in isosensitest broth against Streptococcus; type: functional
[28] = tested on: Streptococcus; experiment: Geometrical average of minimum bactericidal concentration was determined in isosensitest against Streptococcus; type: functional
[29] = tested on: Serratia; experiment: Geometrical average of minimum inhibitory concentration was determined in isosensitest broth against Serratia; type: functional
[30] = tested on: Staphylococcus; experiment: (§1) Geometrical average of minimum inhibitory concentration was determined in isosensitest broth against Staphylococcus; type: functional
[31] = tested on: Serratia; experiment: Geometrical average of minimum bactericidal concentration was determined in isosensitest broth against Serratia; type: functional
[32] = tested on: Staphylococcus; experiment: (§2) Geometrical average of minimum bactericidal concentration was determined in isosensitest against Staphylococcus; type: functional
[33] = Geometrical average of minimum inhibitory concentration was determined in isosensitest broth against, gram-positive strains.; type: functional
[34] = Geometrical average of minimum inhibitory concentration was determined in isosensitest broth against,gram-negative strains.; type: functional
[35] = tested on: Staphylococcus; experiment: as §1; type: functional; remark: listed apart in the source
[36] = tested on: Bacillus; experiment: Geometrical average of minimum inhibitory concentration was determined in isosensitest broth against Bacillus; type: functional
[37] = tested on: Salmonella typhimurium; experiment: In vivo protective dose was determined in infected swiss mice (120/strain) infected ip against Salmonella Typhimurium T.O with an inoculum size-0.5 mL of 10 E6 CFU/mL of suspension; type: functional, Salmonella enterica subsp. enterica serovar Typhimurium; conditions: Salmonella enterica
[38] = tested on: Staphylococcus; experiment: as §2; type: functional; remark: listed apart in the source
[39] = tested on: Alcaligenes; experiment: Geometrical average of minimum bactericidal concentration was determined in isosensitest broth against Alcaligenes; type: functional
[40] = tested on: Bacillus; experiment: Geometrical average of minimum bactericidal concentration was determined in isosensitest broth against Bacillus; type: functional
[41] = tested on: Escherichia coli; experiment: Geometrical average of minimum bactericidal concentration was determined in isosensitest broth against Escherichia coli; type: functional
[42] = tested on: Escherichia coli; experiment: In vivo protective dose was determined in infected swiss mice (120/strain) infected ip with Escherichia coli ISM with an inoculum size-0.5 mL of 10 E6 CFU/mL of suspension. Activity value range is 0.118-0.615; type: functional
[43] = tested on: Escherichia coli; experiment: Minimum inhibitory concentration was determined against Escherichia coli ISM with an inoculum size-0.5 mL of 10 E6 CFU/mL of suspension; type: functional
[44] = tested on: Enterobacter; experiment: Geometrical average of minimum bactericidal concentration was determined in isosensitest broth against Enterobacter; type: functional
[45] = tested on: Klebsiella pneumoniae; experiment: In vivo protective dose was determined in infected swiss mice (120/strain) infected ip with Klebsiella pneumoniae 102 with an inoculum size-0.5 mL of 10 E5 CFU/mL of suspension. Activity value range is 1.82-7.92; type: functional
[46] = tested on: Klebsiella pneumoniae; experiment: Minimum inhibitory concentration was determined against Klebsiella pneumoniae 102 with an inoculum size-0.5 mL of 10 E5 CFU/mL of suspension; type: functional
[47] = tested on: Neisseria perflava; experiment: Geometrical average of minimum bactericidal concentration was determined in isosensitest broth against Neisseria perfl.; type: functional
[48] = tested on: Sarcina; experiment: Geometrical average of minimum bactericidal concentration was determined in isosensitest broth against Sarcina; type: functional
[49] = tested on: Sarcina; experiment: Geometrical average of minimum inhibitory concentration was determined in isosensitest broth against Sarcina; type: functional
[50] = tested on: Streptococcus; experiment: Geometrical average of minimum bactericidal concentration was determined in isosensitest broth against Streptococcus; type: functional
[51] = tested on: Staphylococcus; experiment: (§3) Geometrical average of minimum bactericidal concentration was determined in isosensitest broth against Staphylococcus; type: functional
[52] = tested on: Staphylococcus; experiment: as §3; type: functional; remark: listed apart in the source
[53] = Geometrical average of minimum inhibitory concentration in isosensitest broth against, gram-negative strains.; type: functional

Cn1nnnc1SCC1=C(C(=O)O)N2C(=O)[C@@H](NC(=O)/C(=N/NCC(=O)O)c3csc(N)n3)[C@H]2SC1
MIC [1]: 18 µg/mL (≈ 32.5 µM) | MIC [2]: 8.59 µg/mL (≈ 15.5 µM)

Cn1nnnc1SCC1=C(C(=O)O)N2C(=O)[C@@H](NC(=O)/C(=N\NC(N)=O)c3csc(N)n3)[C@H]2SC1
MIC [1]: 18.6 µg/mL (≈ 34.6 µM) | MIC [2]: 3.54 µg/mL (≈ 6.56 µM)

CO/N=C(\C(=O)N[C@@H]1C(=O)N2C(C(=O)O)=C(COC(N)=O)CS[C@H]12)c1ccco1 [CEFUROXIME]
MBC [3]: 100 µg/mL (≈ 236 µM) | MIC [4]: 50 µg/mL (≈ 118 µM) | MBC [5]: 35.4 µg/mL (≈ 83.3 µM) | MBC [6]: 4.42 µg/mL (≈ 10.4 µM) | MIC [7]: 2.2 µg/mL (≈ 5.18 µM) | ED50 [8]: 4.8 mg/kg | MIC [9]: 2.2 µg/mL (≈ 5.18 µM) | MBC [10]: 25 µg/mL (≈ 58.9 µM) | MIC [11]: 7.01 µg/mL (≈ 16.5 µM) | MBC [12]: 4.68 µg/mL (≈ 11 µM) | MIC [13]: 3.71 µg/mL (≈ 8.74 µM) | ED50 [14]: 9 mg/kg | MIC [15]: 12.5 µg/mL (≈ 29.5 µM) | MBC [16]: 0.78 µg/mL (≈ 1.84 µM) | MIC [17]: 0.39 µg/mL (≈ 0.919 µM) | MBC [18]: > 100 µg/mL | MIC [19]: > 100 µg/mL | MBC [20]: 3.9 µg/mL (≈ 9.19 µM) | MIC [21]: 1.97 µg/mL (≈ 4.64 µM) | MBC [22]: 0.55 µg/mL (≈ 1.3 µM) | MIC [23]: 0.39 µg/mL (≈ 0.919 µM) | MBC [24]: 6.7 µg/mL (≈ 15.8 µM) | MIC [25]: 1.56 µg/mL (≈ 3.68 µM) | MIC [26]: 3.12 µg/mL (≈ 7.35 µM) | MIC [27]: 15.1 µg/mL (≈ 35.7 µM) | MBC [28]: 59.5 µg/mL (≈ 140 µM) | MIC [29]: 12.4 µg/mL (≈ 29.2 µM) | MIC [30]: 1.06 µg/mL (≈ 2.5 µM) | MBC [31]: 28 µg/mL (≈ 66 µM) | MBC [32]: 1.67 µg/mL (≈ 3.94 µM) | MIC [33]: 1.11 µg/mL (≈ 2.62 µM) | MIC [34]: 10.6 µg/mL (≈ 25.1 µM) | MIC [35]: 10.5 µg/mL (≈ 24.8 µM) | MIC [36]: 35.4 µg/mL (≈ 83.3 µM) | ED50 [37]: > 90 mg/kg | MBC [38]: 17.7 µg/mL (≈ 41.7 µM)

Cn1nnnc1SCC1=C(C(=O)O)N2C(=O)[C@@H](NC(=O)/C(=N/NC(N)=O)c3csc(N)n3)[C@H]2SC1
MIC [1]: 76.5 µg/mL (≈ 142 µM) | MIC [2]: 16.8 µg/mL (≈ 31.2 µM)

CCOC(=O)CN/N=C(/C(=O)N[C@@H]1C(=O)N2C(C(=O)O)=C(CSc3nnnn3C)CS[C@H]12)c1csc(N)n1
MIC [1]: 13.2 µg/mL (≈ 22.7 µM) | MIC [2]: 5.45 µg/mL (≈ 9.35 µM)

CC(=O)OCC1=C(C(=O)O)N2C(=O)[C@@H](NC(=O)/C(=N/N)c3csc(N)n3)[C@H]2SC1
MIC [1]: 7.35 µg/mL (≈ 16.7 µM) | MIC [2]: 1.96 µg/mL (≈ 4.45 µM)

CO/N=C(\C(=O)N[C@@H]1C(=O)N2C(C(=O)O)=C(COC(C)=O)CS[C@H]12)c1csc(N)n1 [CEFOTAXIME]
MBC [39]: 3.12 µg/mL (≈ 6.85 µM) | MIC [4]: 1.56 µg/mL (≈ 3.43 µM) | MBC [40]: 29.7 µg/mL (≈ 65.3 µM) | MBC [41]: 0.25 µg/mL (≈ 0.549 µM) | MIC [7]: 0.17 µg/mL (≈ 0.373 µM) | ED50 [42]: 0.27 mg/kg | MIC [43]: 0.55 µg/mL (≈ 1.21 µM) | MBC [44]: 1.97 µg/mL (≈ 4.33 µM) | MIC [11]: 0.31 µg/mL (≈ 0.681 µM) | MBC [12]: 0.14 µg/mL (≈ 0.307 µM) | MIC [13]: 0.12 µg/mL (≈ 0.263 µM) | ED50 [45]: 3.8 mg/kg | MIC [46]: 0.13 µg/mL (≈ 0.285 µM) | MBC [47]: < 0.09 µg/mL | MIC [17]: < 0.09 µg/mL | MBC [18]: 22.3 µg/mL (≈ 48.9 µM) | MIC [19]: 21.8 µg/mL (≈ 47.9 µM) | MBC [20]: 0.3 µg/mL (≈ 0.659 µM) | MIC [21]: 0.08 µg/mL (≈ 0.176 µM) | MBC [48]: 0.04 µg/mL (≈ 0.0878 µM) | MIC [49]: 0.04 µg/mL (≈ 0.0878 µM) | MBC [24]: 0.38 µg/mL (≈ 0.834 µM) | MIC [26]: 0.24 µg/mL (≈ 0.527 µM) | MBC [50]: 35.4 µg/mL (≈ 77.6 µM) | MIC [27]: 12.3 µg/mL (≈ 27.1 µM) | MIC [29]: 0.09 µg/mL (≈ 0.198 µM) | MIC [30]: 1.61 µg/mL (≈ 3.53 µM) | MBC [51]: 25 µg/mL (≈ 54.9 µM) | MBC [52]: 3.23 µg/mL (≈ 7.09 µM) | MBC [31]: 0.49 µg/mL (≈ 1.08 µM) | MIC [33]: 2.09 µg/mL (≈ 4.59 µM) | MIC [53]: 0.17 µg/mL (≈ 0.373 µM) | MIC [35]: 5.25 µg/mL (≈ 11.5 µM) | MIC [36]: 25 µg/mL (≈ 54.9 µM)

Source: ChEMBL document CHEMBL1123730, “Synthesis and pharmacological evaluation of a new class of 2-(2-aminothiazol-4-yl)-2-hydrazonoacetamido cephalosporins” (J Med Chem, 1987)
